The values that follow come from PMC5862592, “CDK8/19 inhibition induces premature G1/S transition and ATR-dependent cell death in prostate cancer cells” (Oncotarget, 2018).

Like-named read-outs stand apart in the source and are kept apart here.

Common to all, as to assay: biochemical
What all share (set-up): KINOMEscan active site-directed competition binding assay (DiscoveRx), 456 kinases, per cent of control at 300 nM
What all share (conditions): read-out: Percent of Control (%)

The target in assay [1] is T1, ADCK3 (Homo sapiens, UniProt Q8NI60).
T1 construct: gene COQ8A
The method, boiled down:
(§1)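 Kinase panel (456 enzymes) profiled by competitive displacement at the active site; compounds run at 300 nmol/L.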

Assay [2] deals with T2, ARK5 (Homo sapiens, UniProt O60285).
T2 construct: gene NUAK1
The method, boiled down: as §1

For assay [3], the target named is AURKA (Homo sapiens, UniProt O14965). The method, boiled down:
as §1

Assay [4] has as its target BMPR1B (Homo sapiens, UniProt O00238). The method, boiled down:
as §1

Assay [5] concerns the target CAMK1 (Homo sapiens, UniProt Q14012). The method, boiled down:
as §1

In assay [6] the target is CAMK1G (Homo sapiens, UniProt Q96NX5). The method, boiled down: as §1
In assay [7] the target is CAMK2D (Homo sapiens, UniProt Q13557). The method, boiled down:
as §1

Assay [8] concerns the target CAMKK1 (Homo sapiens, UniProt Q8N5S9). The method, boiled down:
as §1

In assay [9] the target is CSF1R (Homo sapiens, UniProt P07333). The method, boiled down:
as §1

Assay [10] addresses DMPK (Homo sapiens, UniProt Q09013). The method, boiled down: as §1
Assay [11] has as its target T3, ERK3 (Homo sapiens, UniProt Q16659).
T3 construct: gene MAPK6
The method, boiled down: as §1

The target of assay [12] is FLT3(D835H) (Homo sapiens, UniProt P36888, D835H). The method, boiled down: as §1
Assay [13] deals with KIT(V559D) (Homo sapiens, UniProt P10721, V559D). The method, boiled down:
as §1

The target of assay [14] is KIT(V559D,T670I) (Homo sapiens, UniProt P10721, T670I/V559D). The method, boiled down: as §1
Assay [15] addresses MAP4K4 (Homo sapiens, UniProt O95819). The method, boiled down:
as §1

In assay [16] the target is MARK1 (Homo sapiens, UniProt Q9P0L2). The method, boiled down:
as §1

Assay [17] has as its target PDPK1 (Homo sapiens, UniProt O15530). The method, boiled down:
as §1

In assay [18] the target is T4, PFCDPK1(P.falciparum) (Plasmodium falciparum, UniProt P62344).
T4 construct: gene CDPK1
The method, boiled down:
as §1

Assay [19] addresses T5, RSK2(Kin.Dom.2-C-terminal) (Homo sapiens, UniProt P51812).
T5 construct: gene RPS6KA3; Kin.Dom.2-C-terminal
The method, boiled down: as §1

Assay [20] concerns the target SRPK1 (Homo sapiens, UniProt Q96SB4). The method, boiled down: as §1
For assay [21], the target named is TGFBR2 (Homo sapiens, UniProt P37173). The method, boiled down: as §1
In assay [22] the target is TTK (Homo sapiens, UniProt P33981). The method, boiled down: as §1

BMPR1B, sequence (O00238 whole entry): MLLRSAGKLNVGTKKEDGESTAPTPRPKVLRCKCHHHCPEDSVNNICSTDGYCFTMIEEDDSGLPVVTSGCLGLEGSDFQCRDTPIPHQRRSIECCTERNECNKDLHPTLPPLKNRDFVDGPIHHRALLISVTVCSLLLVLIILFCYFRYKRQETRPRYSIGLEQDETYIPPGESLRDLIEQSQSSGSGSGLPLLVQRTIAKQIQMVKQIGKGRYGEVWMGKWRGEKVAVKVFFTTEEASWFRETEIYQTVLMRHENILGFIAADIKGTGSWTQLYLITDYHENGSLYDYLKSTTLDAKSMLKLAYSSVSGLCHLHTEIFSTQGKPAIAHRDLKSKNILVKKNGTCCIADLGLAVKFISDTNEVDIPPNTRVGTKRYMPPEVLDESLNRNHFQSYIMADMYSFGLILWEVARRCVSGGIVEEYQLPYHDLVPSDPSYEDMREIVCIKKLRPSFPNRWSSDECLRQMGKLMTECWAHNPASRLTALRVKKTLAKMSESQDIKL
CAMKK1, sequence (Q8N5S9 whole entry): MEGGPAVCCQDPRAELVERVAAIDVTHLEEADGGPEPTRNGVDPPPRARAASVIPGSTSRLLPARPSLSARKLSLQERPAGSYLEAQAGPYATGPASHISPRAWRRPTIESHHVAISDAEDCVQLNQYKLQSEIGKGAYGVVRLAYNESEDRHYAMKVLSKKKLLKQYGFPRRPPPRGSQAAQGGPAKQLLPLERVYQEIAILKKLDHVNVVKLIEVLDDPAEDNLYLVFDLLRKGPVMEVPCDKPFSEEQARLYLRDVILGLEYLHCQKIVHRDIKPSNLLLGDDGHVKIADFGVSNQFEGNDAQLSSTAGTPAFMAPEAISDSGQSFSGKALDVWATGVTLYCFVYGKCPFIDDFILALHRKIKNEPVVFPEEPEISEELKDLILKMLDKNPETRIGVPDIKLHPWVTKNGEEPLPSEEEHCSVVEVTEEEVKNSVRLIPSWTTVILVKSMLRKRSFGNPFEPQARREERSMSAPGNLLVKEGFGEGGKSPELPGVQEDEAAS
T2 sequence (O60285 whole entry): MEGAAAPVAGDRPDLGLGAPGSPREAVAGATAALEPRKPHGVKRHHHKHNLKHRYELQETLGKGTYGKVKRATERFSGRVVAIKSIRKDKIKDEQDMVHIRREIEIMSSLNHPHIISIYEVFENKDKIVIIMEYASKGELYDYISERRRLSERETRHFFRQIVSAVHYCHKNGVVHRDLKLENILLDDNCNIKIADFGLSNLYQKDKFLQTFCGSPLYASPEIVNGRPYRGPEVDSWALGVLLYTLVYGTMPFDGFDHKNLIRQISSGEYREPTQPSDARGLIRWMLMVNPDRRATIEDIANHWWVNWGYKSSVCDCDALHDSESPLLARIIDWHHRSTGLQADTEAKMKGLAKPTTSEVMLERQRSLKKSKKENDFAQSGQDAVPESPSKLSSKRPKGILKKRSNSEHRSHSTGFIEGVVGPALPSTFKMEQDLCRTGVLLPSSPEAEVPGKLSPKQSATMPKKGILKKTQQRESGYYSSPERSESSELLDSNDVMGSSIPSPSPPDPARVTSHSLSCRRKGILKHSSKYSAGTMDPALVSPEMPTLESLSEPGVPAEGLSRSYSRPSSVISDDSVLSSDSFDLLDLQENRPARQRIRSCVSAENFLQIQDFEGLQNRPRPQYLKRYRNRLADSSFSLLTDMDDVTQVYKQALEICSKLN
DMPK, sequence (Q09013 whole entry): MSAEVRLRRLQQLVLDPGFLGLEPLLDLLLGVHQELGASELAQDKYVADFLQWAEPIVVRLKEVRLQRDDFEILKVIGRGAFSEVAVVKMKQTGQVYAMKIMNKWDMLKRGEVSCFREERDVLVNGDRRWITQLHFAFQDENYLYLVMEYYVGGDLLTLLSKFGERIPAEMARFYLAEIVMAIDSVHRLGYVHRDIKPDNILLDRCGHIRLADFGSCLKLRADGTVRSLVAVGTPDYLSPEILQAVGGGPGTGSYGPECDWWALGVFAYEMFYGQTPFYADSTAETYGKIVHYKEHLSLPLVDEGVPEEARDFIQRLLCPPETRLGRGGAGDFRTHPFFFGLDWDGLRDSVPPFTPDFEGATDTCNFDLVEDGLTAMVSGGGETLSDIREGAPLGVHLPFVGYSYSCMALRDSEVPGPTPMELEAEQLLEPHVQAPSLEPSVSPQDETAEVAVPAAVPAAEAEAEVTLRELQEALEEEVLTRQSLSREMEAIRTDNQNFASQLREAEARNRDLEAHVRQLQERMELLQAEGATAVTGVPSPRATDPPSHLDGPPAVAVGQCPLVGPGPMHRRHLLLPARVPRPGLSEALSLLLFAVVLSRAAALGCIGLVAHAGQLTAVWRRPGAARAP
KIT(V559D), sequence (P10721 whole entry V559D): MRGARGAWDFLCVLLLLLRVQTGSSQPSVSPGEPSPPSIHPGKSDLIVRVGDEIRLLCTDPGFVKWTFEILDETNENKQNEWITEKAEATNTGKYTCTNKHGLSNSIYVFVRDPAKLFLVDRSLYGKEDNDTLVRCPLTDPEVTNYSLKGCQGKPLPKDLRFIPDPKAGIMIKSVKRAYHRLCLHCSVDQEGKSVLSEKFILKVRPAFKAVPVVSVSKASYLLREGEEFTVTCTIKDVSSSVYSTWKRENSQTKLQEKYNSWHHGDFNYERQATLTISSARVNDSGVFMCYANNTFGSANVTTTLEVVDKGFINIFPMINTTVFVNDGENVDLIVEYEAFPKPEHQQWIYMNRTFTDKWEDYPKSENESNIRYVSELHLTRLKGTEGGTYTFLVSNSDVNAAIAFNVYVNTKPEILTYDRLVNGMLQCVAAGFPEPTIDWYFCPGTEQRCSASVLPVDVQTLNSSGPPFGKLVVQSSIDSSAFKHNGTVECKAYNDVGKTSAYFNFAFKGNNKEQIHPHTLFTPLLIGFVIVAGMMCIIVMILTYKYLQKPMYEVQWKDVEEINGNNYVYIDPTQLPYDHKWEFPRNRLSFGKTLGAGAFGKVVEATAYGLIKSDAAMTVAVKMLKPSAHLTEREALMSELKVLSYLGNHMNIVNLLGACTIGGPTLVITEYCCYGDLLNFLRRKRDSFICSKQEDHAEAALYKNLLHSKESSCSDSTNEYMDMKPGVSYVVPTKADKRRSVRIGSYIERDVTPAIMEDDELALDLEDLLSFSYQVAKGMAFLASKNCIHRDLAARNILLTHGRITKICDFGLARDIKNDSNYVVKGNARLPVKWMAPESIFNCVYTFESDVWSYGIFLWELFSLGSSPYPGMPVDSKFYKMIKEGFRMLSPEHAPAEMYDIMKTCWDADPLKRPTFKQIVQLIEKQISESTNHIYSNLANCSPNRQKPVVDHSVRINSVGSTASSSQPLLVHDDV
MARK1, sequence (Q9P0L2 whole entry): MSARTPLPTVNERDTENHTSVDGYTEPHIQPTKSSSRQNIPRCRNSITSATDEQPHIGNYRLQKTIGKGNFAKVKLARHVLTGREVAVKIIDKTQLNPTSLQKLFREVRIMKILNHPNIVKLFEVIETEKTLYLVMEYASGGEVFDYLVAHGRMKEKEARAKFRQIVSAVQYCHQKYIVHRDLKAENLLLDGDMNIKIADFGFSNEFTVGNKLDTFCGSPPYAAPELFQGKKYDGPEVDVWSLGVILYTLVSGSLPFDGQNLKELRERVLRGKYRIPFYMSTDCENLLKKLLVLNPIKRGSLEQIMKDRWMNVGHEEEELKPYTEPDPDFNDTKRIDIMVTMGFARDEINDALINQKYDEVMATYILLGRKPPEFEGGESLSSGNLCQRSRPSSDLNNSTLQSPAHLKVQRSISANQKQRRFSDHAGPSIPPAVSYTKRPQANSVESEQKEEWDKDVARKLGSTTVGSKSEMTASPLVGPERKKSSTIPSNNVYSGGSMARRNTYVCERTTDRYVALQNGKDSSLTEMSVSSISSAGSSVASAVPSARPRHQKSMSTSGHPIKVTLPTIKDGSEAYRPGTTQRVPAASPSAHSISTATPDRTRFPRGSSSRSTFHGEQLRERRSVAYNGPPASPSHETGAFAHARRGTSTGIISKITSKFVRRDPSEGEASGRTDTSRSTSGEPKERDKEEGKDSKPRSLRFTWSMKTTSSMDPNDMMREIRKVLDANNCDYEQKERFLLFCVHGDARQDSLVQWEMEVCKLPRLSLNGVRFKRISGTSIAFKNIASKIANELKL
CAMK1G, sequence (Q96NX5 whole entry): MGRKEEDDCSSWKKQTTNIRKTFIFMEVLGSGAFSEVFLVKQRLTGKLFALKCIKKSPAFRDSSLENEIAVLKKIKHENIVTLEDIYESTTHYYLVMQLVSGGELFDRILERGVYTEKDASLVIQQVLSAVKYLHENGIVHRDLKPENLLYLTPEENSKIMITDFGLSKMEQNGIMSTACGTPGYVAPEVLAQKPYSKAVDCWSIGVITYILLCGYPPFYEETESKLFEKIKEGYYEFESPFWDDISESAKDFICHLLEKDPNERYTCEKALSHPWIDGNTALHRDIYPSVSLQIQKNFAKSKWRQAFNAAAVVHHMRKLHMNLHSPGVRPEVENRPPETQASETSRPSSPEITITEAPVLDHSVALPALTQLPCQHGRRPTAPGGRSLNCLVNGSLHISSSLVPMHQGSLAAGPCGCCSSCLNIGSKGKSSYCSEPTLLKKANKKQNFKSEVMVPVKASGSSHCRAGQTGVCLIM
AURKA, sequence (O14965 whole entry): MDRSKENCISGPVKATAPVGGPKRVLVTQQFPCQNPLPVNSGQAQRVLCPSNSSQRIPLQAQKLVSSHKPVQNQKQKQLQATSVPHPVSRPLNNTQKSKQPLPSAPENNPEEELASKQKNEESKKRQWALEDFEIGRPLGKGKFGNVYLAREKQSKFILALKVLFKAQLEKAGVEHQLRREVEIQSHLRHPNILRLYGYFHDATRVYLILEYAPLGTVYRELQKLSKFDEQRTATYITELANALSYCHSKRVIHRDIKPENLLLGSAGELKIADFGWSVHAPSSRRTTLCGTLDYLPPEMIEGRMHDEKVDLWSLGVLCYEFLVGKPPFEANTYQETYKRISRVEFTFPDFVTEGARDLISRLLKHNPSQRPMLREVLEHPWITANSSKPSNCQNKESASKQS
KIT(V559D,T670I), sequence (P10721 whole entry V559D/T670I): as the sequence (P10721 whole entry V559D) above, with T670I counted along it

Turning to `O=C(/C=C/c1cnccc1-c1ccc(F)cc1)Nc1ccc(CCc2nnco2)cc1` [T-418, (2E)-3-(4-(4-fluorophenyl)pyridin-3-yl)-N-(4-(2-(1,3,4-oxadiazol-2-yl)ethyl)phenyl)acrylamide], the remaining binding at 0.3 µM stood at 100% in [1] (sheet T-418); 100% in [2] (sheet T-418); 100% in assay [3] (sheet T-418); 100% in assay [4] (sheet T-418); 70% in assay [5] (sheet T-418); 100% in [6] (sheet T-418). The remaining binding at 0.3 µM in assay [7] (sheet T-418) was 100%; in assay [8] (sheet T-418), 100%; in [9] (sheet T-418) it was 81%; in assay [10] (sheet T-418), 91%; in assay [11] (sheet T-418), 68%; in [12] (sheet T-418), 100%. The remaining binding at 0.3 µM in assay [13] (sheet T-418) amounted to 100%; in [14] (sheet T-418) it was 77%; in assay [15] (sheet T-418) it was 89%; in [16] (sheet T-418), 100%; in assay [17] (sheet T-418), 64%; in [18] (sheet T-418), 100%. For the same molecule, the remaining binding at 0.3 µM in assay [19] (sheet T-418) turned out to be 100%; in assay [20] (sheet T-418), 61%; in assay [21] (sheet T-418) it was 84%; in assay [22] (sheet T-418), 90%.

On to `Cc1ncccc1Oc1sc(C(N)=O)c2c1-c1c(cnn1C)CC2` [T-474, 1-methyl-8-((2-methylpyridin-3-yl)oxy)-4,5-dihydro-1H-thieno[3,4-g]indazole-6-carboxamide], for which the remaining binding at 0.3 µM in [1] was determined as 90%; in assay [2] it was 100%; in assay [3], 100%; in assay [4], 100%; in [5] it was 66%; in assay [6], 100%. The remaining binding at 0.3 µM worked out at 100% in [7]; 100% in [8]; 100% in [9]; 98% in [10]; 78% in assay [11]; 58% in assay [12]. Besides, the remaining binding at 0.3 µM in assay [13] worked out at 100%; in assay [14], 100%; in assay [15], 83%; in assay [16], 81%; in [17], 70%; in assay [18], 100%. Moreover, the remaining binding at 0.3 µM in assay [19] was determined as 100%; in assay [20] it was 100%; in assay [21], 78%; in assay [22], 97%.
